Assay results: ChEMBL document CHEMBL5634174, “Biological evaluation of sulfonate and sulfate analogues of lithocholic acid: A bioisosterism-guided approach towards the discovery of potential sialyltransferase inhibitors for antimetastatic study” (Bioorg Med Chem Lett, 2024)
Activity calls are given as the source filed them. No cut-off for these calls is given here.

How the values were obtained:
[1] = biological target: T1, Sialyltransferase ST3Gal-I (Rattus norvegicus) (UniProt Q6H8N0); test: Inhibition of rat ST3GAL1 at 500 uM by UPLC-based assay relative to control
T1 sequence (whole entry): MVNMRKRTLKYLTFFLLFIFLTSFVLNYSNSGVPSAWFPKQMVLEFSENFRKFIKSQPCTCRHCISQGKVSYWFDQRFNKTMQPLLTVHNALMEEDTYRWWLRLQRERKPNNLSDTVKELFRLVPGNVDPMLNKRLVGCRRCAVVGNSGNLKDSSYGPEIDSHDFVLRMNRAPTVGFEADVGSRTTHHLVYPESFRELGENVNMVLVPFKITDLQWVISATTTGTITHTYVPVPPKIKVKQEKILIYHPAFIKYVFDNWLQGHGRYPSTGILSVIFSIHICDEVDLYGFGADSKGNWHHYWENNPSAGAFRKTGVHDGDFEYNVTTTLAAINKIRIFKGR

[2] = biological target: T2, Beta-galactoside alpha-2,6-sialyltransferase 1 (Homo sapiens, UniProt P15907); test: Inhibition of recombinant human N-terminal His tagged ST6GAL1 (44 to 406 residues) by UPLC-based assay
T2 sequence (P15907 whole entry): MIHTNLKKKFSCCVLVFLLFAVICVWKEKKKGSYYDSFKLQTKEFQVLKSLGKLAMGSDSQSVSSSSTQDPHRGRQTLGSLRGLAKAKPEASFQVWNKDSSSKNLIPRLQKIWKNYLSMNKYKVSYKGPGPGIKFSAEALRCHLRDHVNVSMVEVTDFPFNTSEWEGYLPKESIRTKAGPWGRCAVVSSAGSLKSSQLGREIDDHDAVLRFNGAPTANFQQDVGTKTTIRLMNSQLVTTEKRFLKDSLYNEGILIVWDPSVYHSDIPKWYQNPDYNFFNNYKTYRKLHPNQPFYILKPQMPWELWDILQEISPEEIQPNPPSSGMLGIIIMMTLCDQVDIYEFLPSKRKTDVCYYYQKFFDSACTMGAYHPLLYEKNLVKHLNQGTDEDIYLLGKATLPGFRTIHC

[3] = Selectivity index, ratio of IC50 for inhibition of rat ST3GAL1 to IC50 for inhibition of human ST6GAL1
[4] = biological target: Focal adhesion kinase 1 (Homo sapiens) (UniProt Q05397); test: Inhibition of FAK phosphorylation at Y576/577 residue in human MDA-MB-231 cells at 80 uM incubated for 2 hrs by Western blot analysis; assay type: cell-based
MDA-MB-231 [5] = test: Inhibition of cell invasion in human MDA-MB-231 cells assessed as reduction in cell adhesion at 60 uM after 48 hrs; assay type: functional, cell-based
MDA-MB-231 [6] = test: Inhibition of cell invasion in human MDA-MB-231 cells assessed as reduction in cell adhesion to fibronectin at 60 uM incubated for 24 hrs; assay type: functional, cell-based
MDA-MB-231 [7] = test: Inhibition of cell invasion in human MDA-MB-231 cells assessed as reduction in cell adhesion to collagen IV at 60 uM incubated for 48 hrs; assay type: functional, cell-based
[8] = biological target: Focal adhesion kinase 1 (Homo sapiens) (UniProt Q05397); test: Inhibition of FAK phosphorylation at Y576/577 residue in human MDA-MB-231 cells incubated for 2 hrs by Western blot analysis; assay type: cell-based; settings: dose 20-80 µM
[9] = biological target: Focal adhesion kinase 1 (Homo sapiens) (UniProt Q05397); test: Inhibition of FAK phosphorylation at Y397 residue in human MDA-MB-231 cells incubated for 2 hrs by Western blot analysis; assay type: cell-based; settings: dose 20-80 µM
[10] = biological target: T3, Sialyltransferase ST3Gal-I (Rattus norvegicus, UniProt Q6H8N0); test: Inhibition of rat ST3GAL1 by UPLC-based assay
T3 sequence (Q6H8N0 whole entry): T1 sequence (whole entry)

[11] = biological target: Integrin alpha-5 (Homo sapiens) (UniProt P08648); test: Inhibition of integrin alpha-5 in human MDA-MB-231 cells assessed as decrease in sialylation level incubated for 48 hrs by Western blot analysis; assay type: cell-based; settings: dose 20-80 µM
MDA-MB-231 [12] = test: Effect on total FAK expression level in human MDA-MB-231 cells at 20 to 80 uM incubated for 2 hrs by Western blot analysis; assay type: functional, cell-based; settings: dose 20-80 µM
[13] = biological target: Focal adhesion kinase 1 (Homo sapiens) (UniProt Q05397); test: Inhibition of FAK phosphorylation at Y397 residue in human MDA-MB-231 cells at 80 uM incubated for 2 hrs by Western blot analysis; assay type: cell-based
[14] = biological target: T4, Beta-galactoside alpha-2,6-sialyltransferase 1 (Homo sapiens) (UniProt P15907); test: Inhibition of recombinant human N-terminal His tagged ST6GAL1 (44 to 406 residues) at 50 uM by UPLC-based assay relative to control
T4 sequence (whole entry): T2 sequence (P15907 whole entry)

Focal adhesion kinase 1 (Homo sapiens), sequence (Q05397 2-1052 limits assumed): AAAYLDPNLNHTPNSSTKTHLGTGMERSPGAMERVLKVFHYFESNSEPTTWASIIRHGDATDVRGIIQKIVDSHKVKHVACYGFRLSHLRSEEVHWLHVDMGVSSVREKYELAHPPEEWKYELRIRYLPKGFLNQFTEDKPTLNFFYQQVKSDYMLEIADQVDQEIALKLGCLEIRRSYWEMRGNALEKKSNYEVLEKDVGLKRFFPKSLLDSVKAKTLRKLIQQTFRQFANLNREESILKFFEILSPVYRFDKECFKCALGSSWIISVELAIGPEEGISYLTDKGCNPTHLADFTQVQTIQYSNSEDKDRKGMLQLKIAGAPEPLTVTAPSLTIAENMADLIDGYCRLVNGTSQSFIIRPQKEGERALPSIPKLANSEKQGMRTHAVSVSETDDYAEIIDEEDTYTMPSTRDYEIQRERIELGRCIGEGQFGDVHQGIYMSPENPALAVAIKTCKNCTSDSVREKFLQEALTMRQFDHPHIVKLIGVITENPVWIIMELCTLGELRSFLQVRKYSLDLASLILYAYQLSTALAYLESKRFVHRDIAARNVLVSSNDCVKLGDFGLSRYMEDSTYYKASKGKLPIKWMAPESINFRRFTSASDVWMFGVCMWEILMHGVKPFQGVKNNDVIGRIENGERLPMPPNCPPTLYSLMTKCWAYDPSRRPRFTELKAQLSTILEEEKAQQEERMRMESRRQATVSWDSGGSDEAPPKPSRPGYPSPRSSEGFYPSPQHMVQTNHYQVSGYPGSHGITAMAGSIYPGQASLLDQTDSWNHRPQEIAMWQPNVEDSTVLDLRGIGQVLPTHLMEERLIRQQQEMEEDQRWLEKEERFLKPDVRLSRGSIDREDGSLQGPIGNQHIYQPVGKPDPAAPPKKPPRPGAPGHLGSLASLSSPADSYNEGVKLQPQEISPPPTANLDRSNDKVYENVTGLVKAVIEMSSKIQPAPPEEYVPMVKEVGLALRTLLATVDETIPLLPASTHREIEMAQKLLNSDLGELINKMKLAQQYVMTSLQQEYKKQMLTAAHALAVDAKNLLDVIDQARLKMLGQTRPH
Integrin alpha-5 (Homo sapiens), sequence (P08648 42-894 limits assumed): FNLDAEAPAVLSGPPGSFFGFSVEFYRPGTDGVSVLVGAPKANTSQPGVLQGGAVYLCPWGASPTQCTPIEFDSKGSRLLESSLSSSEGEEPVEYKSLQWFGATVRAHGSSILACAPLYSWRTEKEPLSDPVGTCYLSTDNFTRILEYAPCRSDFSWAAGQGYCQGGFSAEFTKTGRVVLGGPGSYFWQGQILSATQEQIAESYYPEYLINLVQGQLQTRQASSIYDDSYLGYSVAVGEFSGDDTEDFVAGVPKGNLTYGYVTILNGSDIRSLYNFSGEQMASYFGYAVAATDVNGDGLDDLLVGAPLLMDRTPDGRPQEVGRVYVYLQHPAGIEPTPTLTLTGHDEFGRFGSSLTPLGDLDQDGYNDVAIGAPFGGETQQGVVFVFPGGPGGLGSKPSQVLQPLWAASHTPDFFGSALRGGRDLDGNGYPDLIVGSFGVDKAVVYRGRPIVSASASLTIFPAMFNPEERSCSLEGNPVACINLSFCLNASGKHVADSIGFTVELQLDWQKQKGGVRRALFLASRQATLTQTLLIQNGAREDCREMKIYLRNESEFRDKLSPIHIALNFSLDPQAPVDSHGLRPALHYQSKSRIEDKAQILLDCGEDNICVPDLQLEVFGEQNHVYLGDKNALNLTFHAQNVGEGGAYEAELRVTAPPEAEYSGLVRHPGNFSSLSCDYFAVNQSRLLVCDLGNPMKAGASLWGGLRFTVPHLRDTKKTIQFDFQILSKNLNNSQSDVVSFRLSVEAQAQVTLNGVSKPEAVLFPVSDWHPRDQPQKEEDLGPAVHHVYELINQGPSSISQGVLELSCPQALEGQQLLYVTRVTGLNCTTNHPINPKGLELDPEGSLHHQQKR
Integrin alpha-5 (Homo sapiens), sequence (P08648 895-1049 limits assumed): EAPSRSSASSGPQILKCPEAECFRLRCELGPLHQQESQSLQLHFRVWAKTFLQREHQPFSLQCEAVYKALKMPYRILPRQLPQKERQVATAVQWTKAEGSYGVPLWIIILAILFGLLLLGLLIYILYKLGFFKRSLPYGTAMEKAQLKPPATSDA

With `C[C@H](CCCOS(=O)(=O)O)[C@H]1CC[C@H]2[C@@H]3CC[C@@H]4C[C@H](O)CC[C@]4(C)[C@H]3CC[C@]12C` as the molecule, how does the inhibition [1] read?
Its inhibition is 3%.

What about the IC50 [2] of the same molecule?
Its IC50 is 16.7 µM.

What about the Ratio IC50 [3] of the same molecule?
The Ratio IC50 was greater than 60.

And the inhibition [4]?
Its inhibition is “Active”.

What about the inhibition (MDA-MB-231 [5]) of the same molecule?
Its inhibition is “inactive”.

What about the inhibition (MDA-MB-231 [6]) of the same molecule?
Its inhibition is “Active”.

What about the inhibition (MDA-MB-231 [7]) of the same molecule?
Its inhibition is “Active”.

And the inhibition [8]?
Its inhibition is “Dose-Dependent Effect”.

And the inhibition [9]?
Its inhibition is “Dose-Dependent Effect”.

What about the IC50 [10] of the same molecule?
Its IC50 is greater than 1000 µM.

What about the Activity [11] of the same molecule?
The Activity was “Dose-Dependent Effect”.

What about the Activity (MDA-MB-231 [12]) of the same molecule?
The Activity was “inactive”.

What about the inhibition [13] of the same molecule?
The inhibition was “Active”.

And the inhibition [14]?
Its inhibition is 100%.
